{
  "source": "patent CN116139126A",
  "about": "“表没食子儿茶素-3-没食子酸酯在制备嗜水气单胞菌的群体感应抑制剂中的应用” (Yueyang Yumeikang Bio Tech Co ltd, priority 2023, dated 2023)",
  "key": {"[1]": {"tested_on": "virulence factor and QS genes of Aeromonas hydrophila (嗜水气单胞菌毒力因子及QS基因)", "experiment": "qRT-PCR of quorum sensing and virulence genes", "assay_type": "cell-based, Aeromonas hydrophila AH08", "settings": "normalised to rpob"}, "[2]": {"tested_on": "Aeromonas hydrophila (嗜水气单胞菌)", "experiment": "Histopathology of infected zebrafish (gill, muscle, liver; H&E)", "assay_type": "in vivo, Aeromonas hydrophila AH08; zebrafish"}, "[3]": {"tested_on": "Aeromonas hydrophila (嗜水气单胞菌)", "assay_type": "in vivo, Aeromonas hydrophila AH08; zebrafish", "settings": "for reduction of bacterial adhesion CFU: compared with model group"}, "[4]": {"tested_on": "Aeromonas hydrophila (嗜水气单胞菌)", "experiment": "MIC/MBC by twofold dilution in TSB", "assay_type": "cell-based, Aeromonas hydrophila AH08", "settings": "30 °C, 24 h; for MIC: TSB"}, "[5]": {"tested_on": "Aeromonas hydrophila (嗜水气单胞菌)", "experiment": "microbe, parasite or virus in culture", "settings": "18 h"}, "[6]": {"tested_on": "AI-2 of Aeromonas hydrophila (AI-2)", "experiment": "AI-2 bioluminescence assay with V. harveyi BB170 reporter", "assay_type": "cell-based, Aeromonas hydrophila AH08", "settings": "compared with control (no EGCG); 16-256 μg/mL"}, "[7]": {"tested_on": "pro-inflammatory cytokine genes IL-1β, IL-8, IL-6, TNF-α (促炎细胞因子基因)", "experiment": "Pro-inflammatory cytokine gene expression in zebrafish intestine (qRT-PCR)", "settings": "6 h after infection"}, "[8]": {"tested_on": "Aeromonas hydrophila (嗜水气单胞菌)", "experiment": "Protection of zebrafish infected with A. hydrophila (survival)", "assay_type": "in vivo, Aeromonas hydrophila AH08; zebrafish", "settings": "for time of death of the first zebrafish: injected after intraperitoneal infection; for survival rate: model group 0"}, "[9]": {"tested_on": "Aeromonas hydrophila (嗜水气单胞菌)", "settings": "swarming and swimming, 64-256 μg/mL"}, "[10]": {"tested_on": "Aeromonas hydrophila (嗜水气单胞菌)", "experiment": "Growth curve of A. hydrophila", "assay_type": "cell-based, Aeromonas hydrophila AH08"}, "[11]": {"tested_on": "Aeromonas hydrophila biofilm (嗜水气单胞菌生物膜)", "experiment": "Biofilm inhibition test (crystal violet)", "assay_type": "cell-based, Aeromonas hydrophila AH08", "settings": "for inhibition at 128 µg/mL: Aeromonas hydrophila, 128 μg/ml, 30 °C, read-out: inhibition rate of biofilm"}, "[12]": {"settings": "read-out: inhibition rate of swarming"}, "[13]": {"settings": "read-out: inhibition rate of swimming"}},
  "note": "Entries after “also recorded” stand apart in the source; their conditions may differ. Like-named read-outs stand apart in the source and are kept apart here.",
  "data": [
    {"smiles": "O=C(O[C@@H]1Cc2c(O)cc(O)cc2O[C@@H]1c1cc(O)c(O)c(O)c1)c1cc(O)c(O)c(O)c1", "note": "[EGCG, 表没食子儿茶素-3-没食子酸酯]", "values": [
      {"measurement": "expression of LuxR", "setting": "[1]; AI-1 related gene", "result": "不影响"},
      {"measurement": "expression of ahyI", "setting": "[1]; AI-1 related gene", "result": "显著抑制"},
      {"measurement": "expression of ahyR", "setting": "[1]; AI-1 related gene", "result": "显著抑制"},
      {"measurement": "expression of LuxS", "setting": "[1]; AI-2 synthase", "result": "显著抑制"},
      {"measurement": "expression of QseB", "setting": "[1]; AI-3 related gene", "result": "显著抑制"},
      {"measurement": "expression of ahyB", "setting": "[1]; elastase gene", "result": "显著下调"},
      {"measurement": "expression of flgL", "setting": "[1]; flagellar gene", "result": "显著下调"},
      {"measurement": "expression of ahh1", "setting": "[1]; hemolysin gene", "result": "显著下调"},
      {"measurement": "expression of hly", "setting": "[1]; hemolysin gene", "result": "显著下调"},
      {"measurement": "protection of tissues of infected zebrafish", "setting": "[2]; dose-dependent", "result": "显著的保护作用"},
      {"measurement": "pathological damage caused by A. hydrophila", "setting": "[2]; liver, muscle and gill of infected zebrafish", "result": "明显改善"},
      {"measurement": "inflammatory cell infiltration", "setting": "[2]; zebrafish liver, muscle and gill", "result": "显著减少"},
      {"measurement": "reduction of bacterial adhesion CFU", "setting": "[3]; 10 mg/kg", "result": 21.22, "unit": "%"},
      {"measurement": "reduction of bacterial adhesion CFU", "setting": "[3]; 50 mg/kg", "result": 33.47, "unit": "%"},
      {"measurement": "reduction of bacterial adhesion CFU", "setting": "[3]; 100 mg/kg", "result": 38.00, "unit": "%"},
      {"measurement": "adhesion of A. hydrophila to zebrafish (in words)", "setting": "[3]; after EGCG treatment", "result": "显著降低"},
      {"measurement": "bacterial load of zebrafish (in words)", "setting": "[3]; after EGCG treatment", "result": "显著降低"},
      {"measurement": "MBC", "setting": "[4]; Aeromonas hydrophila, TSB agar", "result": 4100, "unit": "µg/mL"},
      {"measurement": "MIC", "setting": "[4]; Aeromonas hydrophila, read-out: MIC", "result": 1020, "unit": "µg/mL"},
      {"measurement": "MIC", "setting": "[4]", "result": 1024, "unit": "µg/mL"},
      {"measurement": "inhibition at 128 µg/mL", "setting": "[5]; [12]", "result": 29.7, "unit": "%"},
      {"measurement": "inhibition at 256 µg/mL", "setting": "[5]; [12]", "result": 33, "unit": "%"},
      {"measurement": "inhibition at 64 µg/mL", "setting": "[5]; [13]", "result": 16, "unit": "%"},
      {"measurement": "inhibition at 128 µg/mL", "setting": "[5]; [13]", "result": 28.3, "unit": "%"},
      {"measurement": "inhibition at 256 µg/mL", "setting": "[5]; [13]", "result": 66, "unit": "%"},
      {"measurement": "AI-2 secreted by A. hydrophila", "setting": "[6]", "result": "明显减少,并呈浓度依赖性"},
      {"measurement": "expression of IL-1β", "setting": "[7]", "result": "显著抑制"},
      {"measurement": "expression of IL-6", "setting": "[7]", "result": "显著抑制"},
      {"measurement": "expression of IL-8", "setting": "[7]", "result": "显著抑制"},
      {"measurement": "expression of TNF-α", "setting": "[7]", "result": "显著抑制"},
      {"measurement": "time of death of the first zebrafish", "setting": "[8]; 50 mg/kg", "result": 18, "unit": "h"},
      {"measurement": "time of death of the first zebrafish", "setting": "[8]; 100 mg/kg", "result": 48, "unit": "h"},
      {"measurement": "survival rate", "setting": "[8]; high dose group (100 mg/kg), 48 h after infection", "result": 88.9, "unit": "%"},
      {"measurement": "survival rate (in words)", "setting": "[8]; low dose group (10 mg/kg), 48 h after infection, compared with model group", "result": "与模型组的生存率相同"},
      {"measurement": "survival rate", "setting": "[8]; medium dose group (50 mg/kg), 48 h after infection", "result": 88.9, "unit": "%"},
      {"measurement": "inhibition of motility (in words)", "setting": "[9]", "result": "显著抑制嗜水气单胞菌的运动性,且呈浓度依赖性"},
      {"measurement": "inhibition of growth after 12 h (growth curve)", "setting": "[10]; 0-256 μg/mL, 30 °C, after 12 h", "result": "没有明显的抑制作用"},
      {"measurement": "effect on lag phase (growth curve)", "setting": "[10]; 0-256 μg/mL, 30 °C, od600nm", "result": "增加了细菌的滞后期; also recorded: 延缓了嗜水气单胞菌进入对数生长期的时间"},
      {"measurement": "bactericidal effect", "setting": "[10]; 64-256 μg/ml, compared with control without EGCG", "result": "不直接产生杀菌作用"},
      {"measurement": "effect on growth after 24 h", "setting": "[10]; sub-MIC, after 24 h", "result": "没有明显影响"},
      {"measurement": "inhibition of biofilm formation (in words)", "setting": "[11]; 16-256 μg/mL", "result": "显著抑制"},
      {"measurement": "concentration dependence of biofilm inhibition", "setting": "[11]; 24 h", "result": "呈浓度依赖性"},
      {"measurement": "inhibition at 128 µg/mL", "setting": "[11]; 24 h", "result": 38.3, "unit": "%"},
      {"measurement": "inhibition at 128 µg/mL", "setting": "[11]; 48 h", "result": 26.6, "unit": "%"}
    ]}
  ]
}
